Data on 26 compounds can be found in patent US9273029B2, “Pyridine-and pyrazine derivatives” (Merck Patent GmbH, priority 2011, dated 2016).

One assay deals with IKKε (Homo sapiens (Human), UniProt Q14164). The experiment in a line: IKKε kinase assay (384-well Flashplate). It is filed as biochemical. Conditions: 10 μM ATP, 2 hours at 30° C.; read-out: IKKε enzyme assay IC50. The procedure: IKKε—Kinase Assay (IKKepsilon)
The kinase assay is performed either as 384-well Flashplate assay (for e.g. Topcount measurement). 1 nM IKKε, 800 nM biotinylated IκBα(19-42) peptide (Biotin-C6-C6-[…]) SEQ ID NO: 1 and 10 μM ATP (spiked with 0.3 μCi ^33P-ATP/well) are incubated in a total volume of 50 μl (10 mM MOPS, 10 mM Mg-acetat, 0.1 mM EGTA, 1 mM Dithiothreitol,0.02% Brij35, 0.1% BSA, 0.1% BioStab, pH 7.5) with or without test compound for 2 hours at 30° C. The reaction is stopped with 25 μl 200 mM EDTA. After 30 Min at room temperature the liquid is removed and each well washed thrice with 100 μl 0.9% sodium chloride solution. Non-specific reaction is determined in presence of 3 μM MSC2119074 (BX-795). Radioactivity is measured with Topcount (PerkinElmer). Results (e.g. IC50-values) are calculated with program tools provided by the IT-department (e.g. AssayExplorer, Symyx).

For assay [1], the target named is TANK binding kinase (TBK1) (Homo sapiens (Human), UniProt Q9UHD2). The experiment in a line: TBK1 enzyme assay (384-well Flashplate kinase assay). As to conditions: 10 μM ATP, 120 Min at 30° C. The format is biochemical. The procedure:
The kinase assay is performed as 384-well Flashplate assay (for e.g. Topcount measurement. 0.6 nM TANK binding kinase (TBK1), 800 nM biotinylated MELK-derived peptide (Biotin-Ah-Ah-[…]) SEQ ID NO: 2 and 10 μM ATP (spiked with 0.25 μCi ^33P-ATP/well) are incubated in a total volume of 50 μl (10 mM MOPS, 10 mM Mg-acetat, 0.1 mM EGTA, 1 mM DTT, 0.02% Brij35, 0.1% BSA, pH 7.5) with or without test compound for 120 Min at 30° C. The reaction is stopped with 25 μl 200 mM EDTA. After 30 Min at room temperature the liquid is removed and each well washed thrice with 100 μl 0.9% sodium chloride solution. Nonspecific reaction is determined in presence of 100 nM Staurosporine. Radioactivity is measured in a Topcount (PerkinElmer). Results (e.g. IC50-values) are calculated with program tools provided by the IT-department (e.g. AssayExplorer, Symyx).

Chain of IKKε (Q14164 whole entry): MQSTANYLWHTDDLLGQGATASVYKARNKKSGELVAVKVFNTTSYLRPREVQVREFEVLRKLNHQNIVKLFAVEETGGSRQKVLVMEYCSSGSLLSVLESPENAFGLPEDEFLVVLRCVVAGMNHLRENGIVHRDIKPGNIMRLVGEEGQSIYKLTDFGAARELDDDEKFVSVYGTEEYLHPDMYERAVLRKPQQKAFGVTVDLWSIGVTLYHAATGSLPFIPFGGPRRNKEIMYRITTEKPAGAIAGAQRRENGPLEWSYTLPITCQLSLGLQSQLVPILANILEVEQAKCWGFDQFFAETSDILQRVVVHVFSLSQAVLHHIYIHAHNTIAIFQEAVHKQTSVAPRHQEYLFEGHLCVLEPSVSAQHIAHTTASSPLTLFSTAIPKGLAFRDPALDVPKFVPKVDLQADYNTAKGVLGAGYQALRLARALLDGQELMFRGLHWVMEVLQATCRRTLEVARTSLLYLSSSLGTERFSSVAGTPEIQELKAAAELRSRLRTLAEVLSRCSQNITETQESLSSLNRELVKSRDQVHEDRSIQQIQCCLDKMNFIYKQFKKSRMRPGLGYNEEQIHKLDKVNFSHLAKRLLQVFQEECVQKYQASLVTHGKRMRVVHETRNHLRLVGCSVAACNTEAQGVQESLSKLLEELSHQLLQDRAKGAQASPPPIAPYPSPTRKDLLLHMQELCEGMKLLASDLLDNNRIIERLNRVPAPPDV
Chain of TANK binding kinase (TBK1) (Q9UHD2 whole entry): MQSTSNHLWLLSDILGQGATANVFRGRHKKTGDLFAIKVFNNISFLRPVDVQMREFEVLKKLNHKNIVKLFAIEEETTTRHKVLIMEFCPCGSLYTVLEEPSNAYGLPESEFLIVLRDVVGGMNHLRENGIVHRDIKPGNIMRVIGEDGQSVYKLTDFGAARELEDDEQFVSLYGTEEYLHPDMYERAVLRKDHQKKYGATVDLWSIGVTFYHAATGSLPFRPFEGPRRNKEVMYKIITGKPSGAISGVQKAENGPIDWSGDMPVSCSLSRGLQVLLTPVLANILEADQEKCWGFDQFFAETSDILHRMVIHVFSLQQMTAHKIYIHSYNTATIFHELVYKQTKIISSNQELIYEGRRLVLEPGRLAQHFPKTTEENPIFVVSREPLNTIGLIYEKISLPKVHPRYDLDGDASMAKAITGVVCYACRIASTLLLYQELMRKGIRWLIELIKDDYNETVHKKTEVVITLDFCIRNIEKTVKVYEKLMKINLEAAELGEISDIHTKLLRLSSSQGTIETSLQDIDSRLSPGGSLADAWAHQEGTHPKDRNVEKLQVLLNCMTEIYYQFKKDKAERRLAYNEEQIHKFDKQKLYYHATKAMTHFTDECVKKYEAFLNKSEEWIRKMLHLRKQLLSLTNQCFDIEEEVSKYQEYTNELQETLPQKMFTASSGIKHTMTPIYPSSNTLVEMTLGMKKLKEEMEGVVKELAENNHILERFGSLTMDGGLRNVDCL

As a reminder, the IC50 is the concentration at which inhibition is half-maximal. With `Nc1ncc(-c2ccc(CN3CCCC3)s2)cc1C(=O)Nc1ccncc1` [Compound A2, 2-Amino-N-pyridin-4-yl-5-(5-pyrrolidin-1-ylmethyl-thiophen-2-yl)-nicotinamide], the values for the IC50 (at IKKε; in assay [1]) were 110 nM and 130 nM, respectively.

`Cc1ccc(-c2cnc(N)c(C(=O)Nc3ccncc3)c2)s1` [Compound A3, 2-Amino-5-(5-methyl-thiophen-2-yl)-N-pyridin-4-yl-nicotinamide]: the IC50 at IKKε amounted to 150 nM; in assay [1] it was 120 nM.

As for `Nc1ncc(-c2ccc(S(N)(=O)=O)cc2)cc1C(=O)Nc1ccncc1` [Compound A7, 2-Amino-N-pyridin-4-yl-5-(4-sulfamoyl-phenyl)-nicotinamide], the IC50 is 1800 nM on IKKε and 150 nM in assay [1].

`Nc1ncc(-c2ccc(CN3CCOCC3)s2)nc1C(=O)Nc1ccncc1` [Compound A10, 3-Amino-6-(5-morpholin-4-ylmethyl-thiophen-2-yl)-pyrazine-2-carboxylic acid pyridin-4-ylamide] came in with an IC50 in assay [1] of 1000 nM.

Turning to `Nc1ncc(-c2cnn(CC3OCCO3)c2)nc1C(=O)Nc1ccncc1` [Compound A12, 3-Amino-6-(1-[1,3]dioxolan-2-ylmethyl-1H-pyrazol-4-yl)-pyrazine-2-carboxylic acid pyridin-4-ylamide], the IC50 is 1000 nM at IKKε and 8300 nM in assay [1].

Consider `Nc1ncc(-c2ccc(CN3CCCCC3)s2)nc1C(=O)Nc1ccncc1` [Compound A13, 3-Amino-6-(5-piperidin-1-ylmethyl-thiophen-2-yl)-pyrazine-2-carboxylic acid pyridin-4-ylamide], for which the concentration for half-maximal inhibition (IC50) came to 1900 nM on IKKε and 4000 nM in assay [1].

Turning to `Nc1ncc(-c2ccc(CN3CCCC3)s2)nc1C(=O)Nc1ccncc1` [Compound A14, 3-Amino-6-(5-pyrrolidin-1-ylmethyl-thiophen-2-yl)-pyrazine-2-carboxylic acid pyridin-4-ylamide], the IC50 at IKKε was determined as 1900 nM; in assay [1] it was 4200 nM.

On to `Cc1cc(NC(=O)c2cc(-c3csc(CN4CCOCC4)c3)cnc2N)ccn1` [Compound A15, 2-Amino-N-(2-methyl-pyridin-4-yl)-5-(5-morpholin-4-ylmethyl-thiophen-3-yl)-nicotinamide], for which the IC50 worked out at 2000 nM at IKKε and 670 nM in assay [1].

Take `Nc1ncc(-c2cccc(-n3cccn3)c2)cc1C(=O)Nc1ccnnc1` [Compound A18, 2-Amino-5-(3-pyrazol-1-yl-phenyl)-N-pyridazin-4-yl-nicotinamide]: the IC50 at IKKε is 640 nM; in assay [1], 790 nM.

Turning to `Cc1cnccc1NC(=O)c1cc(-c2ccc(-n3cccn3)cc2)cnc1N` [Compound A19, 2-Amino-N-(3-methyl-pyridin-4-yl)-5-(4-pyrazol-1-yl-phenyl)-nicotinamide], the IC50 worked out at 2800 nM on IKKε and 1000 nM in assay [1].

With `COCCn1cc(-c2cnc(N)c(C(=O)Nc3ccnc(C)c3)c2)cn1` [Compound A20, 2-Amino-5-[1-(2-methoxy-ethyl)-1H-pyrazol-4-yl]-N-(2-methyl-pyridine-4-yl)-nicotinamide], the IC50 turned out to be 610 nM on IKKε and 1200 nM in assay [1].

As to `COCCn1cc(-c2cnc(N)c(C(=O)Nc3ccncc3C)c2)cn1` [Compound A22, 2-Amino-5-[1-(2-methoxy-ethyl)-1H-pyrazol-4-yl]-N-(3-methyl-pyridin-4-yl)-nicotinamide], the figures for the IC50 (on IKKε; in assay [1]) were 2400 nM and 690 nM, respectively.

`Cc1ccc(-c2cccc(-c3cnc(N)c(C(=O)Nc4ccncc4)c3)c2)cc1` [Compound A23, 2-Amino-5-(4′-methyl-biphenyl-3-yl)-N-pyridin-4-yl-nicotinamide]: the IC50 on IKKε was 2200 nM; in assay [1], 7400 nM.

As for `COCCn1cc(-c2cnc(N)c(C(=O)Nc3ccnnc3)c2)cn1` [Compound A24, 2-Amino-5-[1-(2-methoxy-ethyl)-1H-pyrazol-4-yl]-N-pyridazin-4-yl-nicotinamide], the IC50 at IKKε came out at 890 nM; in assay [1], 1200 nM.

Regarding `NC(=O)Cn1cc(-c2cnc(N)c(C(=O)Nc3ccncc3)c2)cn1` [Compound A25, 2-Amino-5-(1-carbamoylmethyl-1H-pyrazol-4-yl)-N-pyridin-4-yl-nicotinamide], the IC50 at IKKε was found to be 530 nM; in assay [1], 360 nM.

Consider `Cc1cc(NC(=O)c2cc(-c3ccc(CN4CCOCC4)s3)cnc2N)cc(C)n1` [Compound A26, 2-Amino-N-(2,6-dimethyl-pyridin-4-yl)-5-(5-morpholin-4-ylmethyl-thiophen-2-yl)-nicotinamide], for which the IC50 came out at 5200 nM at IKKε and 8200 nM in assay [1].

Turning to `Nc1ncc(-c2ccc(CN3CCOCC3)s2)cc1C(=O)Nc1ccncn1` [Compound A27, 2-Amino-5-(5-morpholin-4-ylmethyl-thiophen-2-yl)-N-pyrimidin-4-yl-nicotinamide], the IC50 at IKKε turned out to be 2600 nM; in assay [1] it was 810 nM.

Take `COCCn1cc(-c2cnc(N)c(C(=O)Nc3ccnc4ccoc34)c2)cn1` [Compound A28, 2-Amino-N-furo[3,2-b]pyridin-7-yl-5-[1-(2-methoxy-ethyl)-1H-pyrazol-4-yl]-nicotinamide]: the IC50 on IKKε came out at 2900 nM; in assay [1], 1200 nM.

`Nc1ncc(-c2ccc(CN3CCOCC3)s2)cc1C(=O)Nc1ccnc2ccoc12` [Compound A29, 2-Amino-N-furo[3,2-b]pyridin-7-yl-5-(5-morpholin-4-ylmethyl-thiophen-2-yl)-nicotinamide]: the IC50 at IKKε was 2400 nM; in assay [1] it was 890 nM.

Turning to `COC(=O)c1ccc(-c2cnc(N)c(C(=O)Nc3ccncc3)c2)cc1` [Compound A30, 4-[6-Amino-5-(pyridin-4-ylcarbamoyl)-pyridin-3-yl]-benzoic acid methyl ester], the IC50 at IKKε amounted to 1900 nM; in assay [1], 1600 nM.

For the compound `Nc1ncc(-c2ccc(C(=O)O)cc2)cc1C(=O)Nc1ccncc1` [Compound A31, 4-[6-Amino-5-(pyridin-4-ylcarbamoyl)-pyridin-3-yl]-benzoic acid], the IC50 is 990 nM at IKKε and 400 nM in assay [1].

With `Nc1ncc(-c2ccc(CCC(=O)O)cc2)cc1C(=O)Nc1ccncc1` [Compound A32, 3-{4-[6-Amino-5-(pyridin-4-ylcarbamoyl)-pyridin-3-yl]-phenyl}-propionic acid], the IC50 at IKKε was found to be 600 nM; in assay [1], 250 nM.

As to `COC(=O)c1cnccc1NC(=O)c1cc(-c2ccc(CN3CCOCC3)s2)cnc1N` [Compound A35, 4-{[2-Amino-5-(5-morpholin-4-ylmethyl-thiophen-2-yl)-pyridine-3-carbonyl]-amino}-nicotinic acid methyl ester], the 50% inhibitory concentration (IC50) in assay [1] was determined as 450 nM.

On to `Cn1cccc1-c1cnc(N)c(C(=O)Nc2ccncc2)c1` [Compound A50, 2-Amino-5-(1-methyl-1H-pyrrol-2-yl)-N-pyridin-4-yl-nicotinamide], for which the IC50 in assay [1] stood at 320 nM.

In the case of `Nc1ncc(-c2cc3ccccc3s2)cc1C(=O)Nc1ccncc1` [Compound A52, 2-Amino-5-benzo[b]thiophen-2-yl-N-pyridin-4-yl-nicotinamide], the IC50 in assay [1] turned out to be 630 nM.

Regarding `Nc1ncc(-c2cc3ccccc3[nH]2)cc1C(=O)Nc1ccncc1` [Compound A55, 2-Amino-5-(1H-indol-2-yl)-N-pyridin-4-yl-nicotinamide], the IC50 in assay [1] was determined as 390 nM.
